Laboratory results reported in US7507727B2, “Substituted quinobenzoxazine analogs and methods of using thereof” (Cylene Pharmaceuticals, Inc., priority 2003, dated 2009).

target: c-Myc template DNA (c-myc quadruplex); test: Quadruplex binding / stop assay (Taq polymerase arrest, capillary electrophoresis); conditions: read-out: S DATA; Table 1D, stop assay data

IC50 [µM]	SMILES
14.1	O=c1c2cn3c4ccccc4oc4c(N5CCC(c6cnccn6)C5)c(F)cc(c2nn1CCN1CCCC1)c43 (stereo not drawn) [compound 1772]
10	O=C(NCCN1CCCC1)c1cn2c3c(c(N4CCOCC4)c(F)cc3c1=O)Oc1cc(Cl)ccc1-2 [compound 1815]
1.75	CN1CCCC1CCNC(=O)c1cn2c3c(c(N4CCC(C(N)=O)CC4)c(F)cc3c1=O)Oc1cc3ccccc3cc1-2 (stereo not drawn) [compound 1493]
> 15	O=C(NCCN1CCCC1)c1cn2c3c(c(NCCN4CCOCC4)ccc3c1=O)Oc1cc3ccccc3cc1-2 [compound 1546]
> 15	NC1CCN(c2c(F)cc3c(=O)c(C(=O)NCCc4ccc(O)c(O)c4)cn4c3c2Oc2cc3ccccc3cc2-4)C1 (stereo not drawn) [compound 1706]
1	CN1CCCC1CCNC(=O)c1cn2c3c(c(N4CCC(n5c(=O)[nH]c6ccccc65)CC4)c(F)cc3c1=O)Oc1cc3ccccc3cc1-2 (stereo not drawn) [compound 1477]
5.2	CN1CCCC1CCNC(=O)c1cn2c3c(c(SCCc4cnccn4)c(F)cc3c1=O)Oc1c-2ccc2ccccc12 (stereo not drawn) [compound 1780]
5.8	CN1CCCC1CCNC(=O)c1cn2c3c(c(SCCc4cnccn4)c(SCCc4cnccn4)cc3c1=O)Oc1cc3ccccc3cc1-2 (stereo not drawn) [compound 1774]
> 15	CN1CCN(CCCNc2c(F)cc3c(=O)c(C(=O)N4CCC(N5CCCC5)CC4)cn4c3c2Oc2ccccc2-4)CC1 [compound 1581]
10	O=C(NCCN1CCCC1)c1cn2c3c(c(N4CCN(Cc5ccc[nH]5)CC4)c(F)cc3c1=O)Oc1cc(Cl)ccc1-2 [compound 1833]
1.75	CN1CCCC1CCNC(=O)c1cn2c3c(c(N4CCC(N)CC4)c(F)cc3c1=O)Oc1cc3ccccc3cc1-2 (stereo not drawn) [compound 1616]
1.75	CN1CCN(CCCNc2ccc3c(=O)c(C(=O)NCCCN4CCOCC4)cn4c3c2Oc2cc3ccccc3cc2-4)CC1 [compound 1554]
1.75	COc1ccc2c(CCNc3c(F)cc4c(=O)c(C(=O)NCCC5CCCN5C)cn5c4c3Oc3cc4ccccc4cc3-5)c[nH]c2c1 (stereo not drawn) [compound 1667]
> 15	CN1CCCC1CCNC(=O)c1cn2c3c(c(N4C[C@@H](NC(=O)OC(C)(C)C)[C@H](c5ccccc5)C4)c(F)cc3c1=O)Oc1cc3ccccc3cc1-2 (stereo partly drawn) [compound 1514]
> 15	NC1CCN(C(=O)c2cn3c4c(c(NCCN5CCCC5)c(F)cc4c2=O)Oc2ccccc2-3)C1 (stereo not drawn) [compound 1629]
> 15	CC(C)N1CCN(c2c(F)cc3c(=O)c(C(=O)NCCCN4CCOCC4)cn4c3c2Oc2cc(Cl)ccc2-4)CC1 [compound 1792]
6.3	C[N+]1([O-])CCC[C@@H]1CCNC(=O)c1cn2c3c(c(N4CCC(c5cnccn5)C4)c(F)cc3c1=O)Oc1cc3ccccc3cc1-2 (stereo partly drawn) [compound 1766]
0.75	CN1CCCC1CCNC(=O)c1cn2c3c(c(NC4CCCNC4)c(F)cc3c1=O)Oc1cc3ccccc3cc1-2 (stereo not drawn) [compound 1490]
> 15	NC1CCN(c2c(F)cc3c(=O)c(C(=O)NCCc4ccc(O)cc4)cn4c3c2Oc2cc3ccccc3cc2-4)C1 (stereo not drawn) [compound 1707]
6.8	CN1CCCC1CCNC(=O)c1cn2c3c(c(N4CCC(c5cnccn5)C4)c(F)cc3c1=O)Oc1ccc(C#N)cc1-2 (stereo not drawn) [compound 1776]

SMILES	IC50 [µM]
CN1CCCC1CCNC(=O)c1cn2c3c(c(NC4CC(C)(C)N(O)C(C)(C)C4)c(F)cc3c1=O)Oc1cc3ccccc3cc1-2 (stereo not drawn) [compound 1484]	1.75

same assay, conditions: read-out: Stop Data c-Myc μM; concentration at which 50% of the DNA was arrested (arrested:full-length 1:1)

SMILES	IC50 [µM]
CN1CCCC1CCNC(=O)c1cn2c3c(c(NCCN4CCOCC4)c(F)cc3c1=O)Oc1cc3c(cc1-2)oc1ccccc13 (stereo not drawn) [compound 147]	1.75
CN1CCCN(c2c(F)cc3c(=O)c(C(=O)N4CCOCC4)cn4c3c2Oc2cc3ccccc3cc2-4)CC1 [compound 41]	2.5
O=C(NCCN1CCOCC1)c1cn2c3c(c(NCCN4CCCC4)ccc3c1=O)Oc1cc3ccccc3cc1-2 [compound 268]	1.75
CN1CCN(CCCNc2ccc3c(=O)c(C(=O)NCCN4CCOCC4)cn4c3c2Oc2cc3ccccc3cc2-4)CC1 [compound 279]	1.75
CN(C)CCCCNC(=O)c1cn2c3c(c(N4CC[C@@H](NC(=O)CCN5CCOCC5)C4)c(F)cc3c1=O)Oc1cc3c(cc1-2)oc1ccccc13 [compound 176]	1.75
O=C(NCCCn1ccnc1)c1cn2c3c(c(NCCN4CCCC4)c(F)cc3c1=O)Oc1c-2ccc2ccccc12 [compound 140]	1.75
CN1CCN(CCCNC(=O)c2cn3c4c(c(NCCN5CCOCC5)c(F)cc4c2=O)Oc2cc4c(cc2-3)oc2ccccc24)CC1 [compound 146]	1.75
CN1CCCC1CCNC(=O)c1cn2c3c(c(N)c(F)c(N4CC[C@H](N)C4)c3c1=O)Oc1cc3ccccc3cc1-2 (stereo partly drawn) [compound 189]	1.75
CN1CCN(CCCNC(=O)c2cn3c4c(c(N5CC[C@@H](NC(=O)OC(C)(C)C)C5)c(F)cc4c2=O)Oc2cc4ccccc4cc2-3)CC1 [compound 64]	2.5
CC1CCCC(C)N1CCCNC(=O)c1cn2c3c(c(N4CCC(N)C4)c(F)cc3c1=O)Oc1cc3ccccc3cc1-2 (stereo not drawn) [compound 337]	1
CN1CCCC1CCNC(=O)c1cn2c3c(c(N4CCC(N)C4)c(F)c(N)c3c1=O)Oc1cc3ccccc3cc1-2 (stereo not drawn) [compound 234]	1.75
O=C(NCCN1CCCC1)c1cn2c3c(c(NCCN4CCOCC4)c(F)cc3c1=O)Oc1cc3c(cc1-2)oc1ccccc13 [compound 148]	1.75
CN1CCCC1CCNC(=O)c1cn2c3c(c(NC(=O)C4CCCNC4)c(F)cc3c1=O)Oc1cc3ccccc3cc1-2 (stereo not drawn) [compound 251]	1.75
CN1CCN(CCCNC(=O)c2cn3c4c(c(NC(=O)CCN5CCCC5)c(F)cc4c2=O)Oc2cc4ccccc4cc2-3)CC1 [compound 88]	2.5
O=C(NCCCn1ccnc1)c1cn2c3c(c(NCCCN4CCOCC4)c(F)cc3c1=O)Oc1cc3c(cc1-2)oc1ccccc13 [compound 313]	1
NC1CCN(c2ccc3c(=O)c(C(=O)O)cn4c3c2Oc2cc3ccccc3cc2-4)C1 (stereo not drawn) [compound 280]	1.75
CC(C)(C)OC(=O)N[C@@H]1CCN(c2c(F)cc3c(=O)c(C(=O)NCCN4CCOCC4)cn4c3c2Oc2cc3ccccc3cc2-4)C1 [compound 63]	2.5
CN(CCc1ccccn1)C(=O)c1cn2c3c(c(N4CC[C@@H](N)C4)c(F)cc3c1=O)Oc1c-2ccc2ccccc12 [compound 80]	2.5
CN(C)CCCCNc1c(F)cc2c(=O)c(C(=O)O)cn3c2c1Oc1c-3ccc2ccccc12 [compound 4]	1.76
CN(C)CCCCNC(=O)c1cn2c3c(c(NCCN4CCCC4)c(F)cc3c1=O)Oc1cc3c(cc1-2)oc1ccccc13 [compound 161]	1.75
CN1CCCC1CCNC(=O)c1cn2c3c(c(N4CCC(N5CCCCC5)CC4)c(F)cc3c1=O)Oc1cc3ccccc3cc1-2 (stereo not drawn) [compound 254]	1.75
CN1CCCC1CCNc1c(F)cc2c(=O)c(C(=O)N3CC[C@H](N)C3)cn3c4cc5c(cc4oc1c23)c(=O)c1ccccc15 (stereo partly drawn) [compound 215]	1.75
NC1CCN(c2c(F)cc3c(=O)c(C(=O)NC4CCN(Cc5ccccc5)CC4)cn4c3c2Oc2cc3ccccc3cc2-4)C1 (stereo not drawn) [compound 245]	1.75
CN1CCCC1CCNC(=O)c1cn2c3c(c(N4CCC(C(N)=O)CC4)c(F)cc3c1=O)Oc1cc3ccccc3cc1-2 (stereo not drawn) [compound 261]	1.75
CN1CCN(CCCNc2c(F)cc3c(=O)c(C(=O)NCCN4CCOCC4)cn4c3c2Oc2cc3c(cc2-4)oc2ccccc23)CC1 [compound 150]	1.75
N=C(N)NCCCCNC(=O)c1cn2c3c(c(N4CC5CCCNC5C4)c(F)cc3c1=O)Oc1cc3ccccc3cc1-2 (stereo not drawn) [compound 328]	1

The remaining lines, values ahead:

IC50 [µM]	SMILES
0.9	CN(C)CCCCNc1c(F)cc2c(=O)c(C(=O)NCCC3CCCN3C)cn3c4cc5c(=O)c6ccccc6c(=O)c5cc4oc1c23 (stereo not drawn) [compound 354]
0.75	O=C(NCCN1CCCC1)c1cn2c3c(c(N4CCC(c5cnccn5)C4)c(F)cc3c1=O)Oc1cc3ccccc3cc1-2 (stereo not drawn) [compound 462]
0.74	CN1CCC[C@@H]1CCNC(=O)c1cn2c3c(c(N4CCC(c5cnccn5)C4)c(F)cc3c1=O)Oc1cc3ccccc3cc1-2 (stereo partly drawn) [compound 468]
0.9	COC(=O)C(CO)NC(=O)c1cn2c3cc4c(=O)c5ccccc5c(=O)c4cc3oc3c(NCCN4CCCC4)c(F)cc(c1=O)c32 (stereo not drawn) [compound 345]
0.42	CN1CCCC1CCNc1c(F)cc2c(=O)c(C(=O)N3CCOCC3)cn3c2c1Oc1cc2ccccc2cc1-3 (stereo not drawn) [compound 495]
0.18	CN(C)CCCCNc1c(F)cc2c(=O)c(C(=O)NCCN3CCCC3)cn3c4cc5oc6cc([N+](=O)[O-])ccc6[nH]c5cc4oc1c23 [compound 586]
0.75	CC1(C)CC(NC(=O)c2cn3c4c(c(N5CCC(N)C5)c(F)cc4c2=O)Oc2cc4ccccc4cc2-3)CC(C)(C)N1 (stereo not drawn) [compound 445]
0.375	CN1CCCC1CCNC(=O)c1cn2c3c(c(NCC4CCNC4)c(F)cc3c1=O)Oc1cc3ccccc3cc1-2 (stereo not drawn) [compound 559]
0.75	CC1(C)CC(NC(=O)c2cn3c4c(c(N5CCC(N)C5)c(F)cc4c2=O)Oc2cc4ccccc4cc2-3)CC(C)(C)N1 (stereo not drawn) [compound 444]
0.375	CN(C)CCCCNC(=O)c1cn2c3c(c(NCCC4CCCN4C)c(F)cc3c1=O)Oc1c-2ccc2ccccc12 (stereo not drawn) [compound 550]
0.85	CN1CCC[C@@H]1CCNC(=O)c1cn2c3c(c(N4CCC(c5cnccn5)C4)c(F)cc3c1=O)Oc1cc3ccccc3cc1-2 (stereo partly drawn) [compound 356]
0.75	CN(C)CCCCNC(=O)c1cn2c3c(c(NCCCN4CCN(C)CC4)c(F)cc3c1=O)Oc1cc3ccccc3cc1-2 [compound 396]
0.75	CN1CCCC1CCNCC(=O)N[C@@H]1CCN(c2c(F)cc3c(=O)c(C(=O)NCCN4CCCCC4)cn4c3c2Oc2cc3c(cc2-4)oc2ccccc23)C1 (stereo partly drawn) [compound 409]
0.75	NCCCNC(=O)c1cn2c3c(c(N4CCC(N)C4)c(F)cc3c1=O)Oc1cc3ccccc3cc1-2 (stereo not drawn) [compound 466]
1.75	CN1CCCC1CCNC(=O)c1cn2c3c(c(NCCCCCO)c(F)cc3c1=O)Oc1cc3ccccc3cc1-2 (stereo not drawn) [compound 1469]
0.75	CN1CCN(C(=O)c2cn3c4c(c(N5CC[C@@H](NC(=O)CNCCC6CCCN6C)C5)c(F)cc4c2=O)Oc2cc4c(cc2-3)oc2ccccc24)CC1 (stereo partly drawn) [compound 411]
